≈ marks a conversion by molar mass, not a printed value. Like-named read-outs stand apart in the source and are kept apart here.
Key:
Candida albicans = test: Antimicrobial well method, zone of inhibition; format: cell-based; details: 1 mg/well
Procedure: (§1) Antimicrobial activity was carried out as described previously. Briefly, 20 mL of sterile Mueller Hinton agar (MHA) was poured in the petri plates and kept for solidification. After solidification, the test cultures were swabbed on the top of the media and kept for 10 min to dry. The required concentration (1 mg/well) of synthesized compounds 5a–l was added to each well and left for 30 min at RT for compound diffusion. Ketoconazole (fungi) and streptomycin (bacteria) used for positive controls. The zone of inhibition was recorded in mm and the experiment was repeated twice.

Enterobacter aerogenes [1] = test: Antimicrobial well method, zone of inhibition; format: cell-based; details: Klebsiella aerogenes
Procedure: as §1

Klebsiella pneumoniae [2] = test: Antimicrobial well method, zone of inhibition; format: cell-based
Procedure: as §1

Malassezia pachydermatis = test: Antimicrobial well method, zone of inhibition; format: cell-based
Procedure: as §1

Micrococcus luteus [3] = test: Antimicrobial well method, zone of inhibition; format: cell-based
Procedure: as §1

Proteus vulgaris [4] = test: Antimicrobial well method, zone of inhibition; format: cell-based
Procedure: as §1

Salmonella paratyphi-B [5] = test: Antimicrobial well method, zone of inhibition; format: cell-based
Procedure: as §1

Salmonella typhimurium [6] = test: Antimicrobial well method, zone of inhibition; format: cell-based; details: Salmonella enterica
Procedure: as §1

Shigella flexneri [7] = test: Antimicrobial well method, zone of inhibition; format: cell-based
Procedure: as §1

[8] = system: Staphylococcus aureus-MRSA; test: Antimicrobial well method, zone of inhibition; format: cell-based
Procedure: as §1

Staphylococcus aureus [9] = test: Antimicrobial well method, zone of inhibition; format: cell-based
Procedure: as §1

[10] = system: Staphylococcus epidermidis; test: Antimicrobial well method, zone of inhibition; format: cell-based
Procedure: as §1

Enterobacter aerogenes [11] = test: Minimum inhibitory concentration (MIC); format: cell-based; details: Klebsiella aerogenes, read-out: Minimum inhibitory concentration
Procedure: (§2) The MIC experiment was carried out according to the standard reference methods. Briefly, the required concentrations of synthesized compounds 5a–l were dissolved in DMSO (Dimethylsulfoxide) in concentrations of 500 µg/mL, 250 µg/mL, 125 µg/mL, 62.5 µg/mL, 31.25 µg/mL, 15.6 µg/mL, and […]. An inoculum of 100 µL from each well (96-well plate) was inoculated. For the positive control, ketoconazole (fungi) and streptomycin (bacteria) was used. The MIC values for the tested bacteria were identified as the lowest inhibiting concentration of compound on the agar plate in visual growth.

Klebsiella pneumoniae [12] = test: Minimum inhibitory concentration (MIC); format: cell-based; details: read-out: Minimum inhibitory concentration
Procedure: as §2

Micrococcus luteus [13] = test: Minimum inhibitory concentration (MIC); format: cell-based; details: read-out: Minimum inhibitory concentration
Procedure: as §2

Proteus vulgaris [14] = test: Minimum inhibitory concentration (MIC); format: cell-based; details: read-out: Minimum inhibitory concentration
Procedure: as §2

Salmonella paratyphi-B [15] = test: Minimum inhibitory concentration (MIC); format: cell-based
Procedure: as §2

Salmonella typhimurium [16] = test: Minimum inhibitory concentration (MIC); format: cell-based; details: Salmonella enterica, read-out: Minimum inhibitory concentration
Procedure: as §2

Shigella flexneri [17] = test: Minimum inhibitory concentration (MIC); format: cell-based
Procedure: as §2

[18] = system: Staphylococcus aureus-MRSA; test: Minimum inhibitory concentration (MIC); format: cell-based; details: read-out: Minimum inhibitory concentration
Procedure: as §2

Staphylococcus aureus [19] = test: Minimum inhibitory concentration (MIC); format: cell-based; details: read-out: Minimum inhibitory concentration
Procedure: as §2

[20] = system: Staphylococcus epidermidis; test: Minimum inhibitory concentration (MIC); format: cell-based; details: read-out: Minimum inhibitory concentration
Procedure: as §2

A549 cells = test: Cytotoxicity, aqueous one solution reagent; format: cell-based; details: for IC50: Homo sapiens, 24 h treatment, read-out: IC50 against A549
Procedure: (§3) The cytotoxic study was carried out as reported previously. Briefly, IMR90, HepG-2, and A549 cells were grown in DMEM (Dulbecco’s Modified Eagle Medium) that contained 10% fetal bovine serum and 1% antibiotics. A total of 15 × 10^3 cells/well were seeded in 96-well plates and incubated under humidified conditions. Cells were treated with varying concentrations of synthesized triazoles for 24 h. After a 24 h treatment, 20 µL aqueous one solution reagent was added to each well and incubated for 3–4 h under a humidified condition. For IMR90 cells, MTT (MTT = 3-(4,5-dimethyl-2-thiazolyl)-2,5-diphenyl-2H-tetrazolium bromide) (5 mg/mL) was added and incubated for 3–4 h in the dark. After incubation, 100 µL of a 10% SDS (Sodium Dodecyl Sulfate) solution (0.01% HCl) was added to each well. The data was taken using an ELISA (enzyme-linked immunosorbent assay) reader at the absorbance of 490 nm for HepG-2 and A549 cells and 570 nm for IMR90 cells. The cell death was calculated using the following formula: Inhibition (%) = ((A − B)/A) × 100 (A—control group, B—treated group).

HepG-2 cells = test: Cytotoxicity, aqueous one solution reagent; format: cell-based; details: for IC50: Homo sapiens, HepG2, 24 h treatment, read-out: IC50 against HepG-2
Procedure: as §3

IMR90 cells = test: Cytotoxicity on normal cells, MTT; format: cell-based; details: IMR-90, human normal IMR90 cells, 24 h treatment, read-out: IC50 against IMR90
Procedure: as §3

tested bacteria = test: Antimicrobial well method, result in words; format: cell-based; details: 1 mg/mL concentration
Procedure: as §1

Row | SMILES | zone of inhibition at 1 mg/well (Enterobacter aerogenes [1]) [mm] | zone of inhibition at 1 mg/well (Klebsiella pneumoniae [2]) [mm] | zone of inhibition at 1 mg/well (Micrococcus luteus [3]) [mm] | zone of inhibition at 1 mg/well (Proteus vulgaris [4]) [mm] | zone of inhibition at 1 mg/well (Salmonella paratyphi-B [5]) [mm] | zone of inhibition at 1 mg/well (Salmonella typhimurium [6]) [mm] | zone of inhibition at 1 mg/well (Shigella flexneri [7]) [mm] | zone of inhibition at 1 mg/well [8] [mm] | zone of inhibition at 1 mg/well (Staphylococcus aureus [9]) [mm] | zone of inhibition at 1 mg/well [10] [mm] | MIC (Klebsiella pneumoniae [12]) [mg/L] | MIC (Micrococcus luteus [13]) [mg/L] | MIC (Proteus vulgaris [14]) [mg/L] | MIC (Salmonella paratyphi-B [15]) [mg/L] | MIC (Shigella flexneri [17]) [mg/L] | MIC (Staphylococcus aureus [19]) [mg/L] | MIC [20] [mg/L] | cytotoxic / anticancer activity against A549 cells (A549 cells) | IC50 (A549 cells) [µM] | antimicrobial activity against tested bacteria (tested bacteria) | other results
1 | C[C@@H]([C@@H](c1ccccc1)n1cc(CO)nn1)N1CCCC1 [5a, (1R,2S)-1-(1-(1-Phenyl-2-(pyrrolidin-1-yl)propyl)-1H-1,2,3-triazol-4-yl)methanol] | 14 | 20 | 28 | 17 | 14 | 14 | 22 | 13 | 12 | 14 | 62.5 (≈ 218 µM) | 31.2 (≈ 109 µM) | 125 (≈ 436 µM) | 250 (≈ 873 µM) | 62.5 (≈ 218 µM) | 500 (≈ 1750 µM) | 250 (≈ 873 µM) | promising anticancer activity | 190 ± 1.35 | promising activity | zone of inhibition (Candida albicans): 14 mm; zone of inhibition at 1 mg/well (Malassezia pachydermatis): 12 mm; MIC (Enterobacter aerogenes [11]; Enterobacter aerogenes): 250 mg/L (≈ 873 µM); MIC (Salmonella typhimurium [16]; Salmonella typhimurium): 250 mg/L (≈ 873 µM); MIC ([18]; Staphylococcus aureus-MRSA): 250 mg/L (≈ 873 µM); cytotoxic activity against HepG-2 cells (HepG-2 cells): moderate activity; IC50 (HepG-2 cells): 275 ± 1.52 µM; IC50 (IMR90 cells): > 250 µM
2 | C[C@@H]([C@@H](c1ccccc1)n1cc(COC(=O)c2ccc([N+](=O)[O-])cc2)nn1)N1CCCC1 [5g, (1R,2S)-(1-(1-Phenyl-2-(pyrrolidin-1-yl)propyl)-1H-1,2,3-triazol-4-yl)methyl 4-nitrobenzoate] | 22 | 24 | 17 | 26 | 20 | 22 | 25 | 24 | 16 | 28 | 31.2 (≈ 71.8 µM) | 125 (≈ 287 µM) | 31.2 (≈ 71.8 µM) | 62.5 (≈ 144 µM) | 31.2 (≈ 71.8 µM) | 125 (≈ 287 µM) | 31.2 (≈ 71.8 µM) | promising anticancer activity | 72 ± 3.21 | promising activity | zone of inhibition (Candida albicans): 13 mm; MIC (Enterobacter aerogenes [11]): 62.5 mg/L (≈ 144 µM); MIC (Salmonella typhimurium [16]; TYPHIMURIUM): 62.5 mg/L (≈ 144 µM); MIC ([18]; Staphylococcus, MRSA): 31.2 mg/L (≈ 71.8 µM); IC50 (HepG-2 cells): > 300 µM; IC50 (IMR90 cells): > 250 µM
3 | COc1ccc(C(=O)OCc2cn([C@H](c3ccccc3)[C@H](C)N3CCCC3)nn2)cc1OC [5h, (1R,2S)-(1-(1-Phenyl-2-(pyrrolidin-1-yl)propyl)-1H-1,2,3-triazol-4-yl)methyl-3,4-dimethoxy-benzoate] | 17 | 20 | 14 | 23 | 19 | 22 | 18 | 20 | 15 | 16 | 62.5 (≈ 139 µM) | 250 (≈ 555 µM) | 62.5 (≈ 139 µM) | 62.5 (≈ 139 µM) | 125 (≈ 277 µM) | 250 (≈ 555 µM) | 125 (≈ 277 µM) | promising anticancer activity | 58 ± 2.31 | promising activity | MIC (Enterobacter aerogenes [11]): 125 mg/L (≈ 277 µM); MIC (Salmonella typhimurium [16]; TYPHIMURIUM): 62.5 mg/L (≈ 139 µM); MIC ([18]; Staphylococcus, MRSA): 62.5 mg/L (≈ 139 µM); IC50 (HepG-2 cells): 73 ± 3.88 µM; IC50 (IMR90 cells): > 250 µM
4 | Cc1cccc(C(=O)OCc2cn([C@H](c3ccccc3)[C@H](C)N3CCCC3)nn2)c1 [5j, (1R,2S)-(1-(1-Phenyl-2-(pyrrolidin-1-yl)propyl)-1H-1,2,3-triazol-4-yl)methyl 3-methylbenzoate] |  | 22 | 16 | 20 | 18 | 20 | 22 | 14 | 15 | 14 | 62.5 (≈ 155 µM) | 125 (≈ 309 µM) | 62.5 (≈ 155 µM) | 125 (≈ 309 µM) | 62.5 (≈ 155 µM) | 250 (≈ 618 µM) | 250 (≈ 618 µM) | promising anticancer activity | 111 ± 1.82 | promising activity | zone of inhibition (Candida albicans): 13 mm; zone of inhibition at 1 mg/well (Malassezia pachydermatis): 11 mm; MIC (Salmonella typhimurium [16]; TYPHIMURIUM): 62.5 mg/L (≈ 155 µM); MIC ([18]; Staphylococcus aureus-MRSA): 250 mg/L (≈ 618 µM); IC50 (HepG-2 cells): > 300 µM; IC50 (IMR90 cells): > 250 µM
5 | C[C@@H]([C@@H](c1ccccc1)n1cc(COC(=O)c2ccccc2Cl)nn1)N1CCCC1 [5k, (1R,2S)-(1-(1-Phenyl-2-(pyrrolidin-1-yl)propyl)-1H-1,2,3-triazol-4-yl)methyl 2-chlorobenzoate] | 22 | 14 |  | 16 | 18 | 15 | 17 | 17 | 18 |  | 250 (≈ 588 µM) |  | 125 (≈ 294 µM) | 125 (≈ 294 µM) | 125 (≈ 294 µM) | 125 (≈ 294 µM) |  |  |  | promising activity | MIC (Enterobacter aerogenes [11]; Enterobacter aerogenes): 62.5 mg/L (≈ 147 µM); MIC (Salmonella typhimurium [16]; Salmonella typhimurium): 250 mg/L (≈ 588 µM); MIC ([18]; Staphylococcus, MRSA): 125 mg/L (≈ 294 µM); melting point: 101 to 102 °C
